For the test, the target named is T1, CXCR4 (Homo sapiens, UniProt P61073).
T1 construct: endogenous in cells; host or cells: CEM-Nkr, CCRF-CEM (ATCC #CCL-119), Jurkat (ATCC #TIB-152), Molt-4 (ATCC# CRL-1582); IL-2 stimulated lymphocytes from human blood
Kind of test: Inhibition of SDF-1 ligand binding or chemotaxis assay for CXCR4. The following applies: first (or only) activity listed in CXCR4/CXCR7; chemotaxis assay or binding assays. How it is done:
CEM-Nkr, CCRF-CEM (ATCC #CCL-119), Jurkat (ATCC #TIB-152), Molt-4 (ATCC# CRL-1 582), cell lines, all endogenously expressing CXCR4, were used in compound screening and subsequent assays. These cell lines were cultured as a suspension in RPMI-1640 medium supplemented with 2 mM L-glutamine, 1.5 g/L sodium bicarbonate, 4.5 g/L glucose, 10 mM HEPES, 1 mM sodium pyruvate, and 10% FBS. Cells were grown under 5% CO2/95% air, 100% humidity at 37° C. and subcultured twice weekly at 1:6 (cells were cultured at a density range of 1×10^5 to 2×10^6 cells/mL) and harvested at 1×10^6 cells/mL.
Il-2 stimulated lymphocytes were isolated from fresh human blood using density separation and centrifigation. Briefly, whole blood is incubated with equal parts 3% dextran and allowed to separate for 45 minutes. After separation, the top layer is then layered on top of 15 mls of Ficoll (15 mls of Ficoll for every 30 mls of blood suspension) and centrifuged for 30 minutes at 400×g with no brake. The pellet at the bottom of the tube is then isolated and resuspended into PharmLyse RBC Lysis Buffer (BD Biosciences, San Jose, Calif.) after which the sample is again centrifuged for 10 minutes at 400×g with brake. The remaining cell pellet is resuspended as appropriate and stimulated with PHA for 2 days, followed by culturing in the presence of human IL-2 cytokine.
Cells were centrifuged and resuspended in assay buffer (20 mM HEPES pH 7.1, 140 mM NaCl, 1 mM CaCl2, 5 mM MgCl2, and with 0.2% bovine serum albumin) to a concentration of 4×10^6 cells/mL for cell lines. Binding assays were set up as follows. 0.15 mL of cells (6×10^5 cells/well) was added to the assay plates containing the compounds, giving a final concentration of ˜2-10 μM each compound for screening (or part of a dose response for compound IC50 determinations). Then 0.1 mL of ^125I labeled SDF-1α (obtained from Perkin Elmer Life Sciences, Boston, Mass.) diluted in assay buffer to a final concentration of ˜[…], yielding ˜30,000 cpm per well, was added, the plates sealed and incubated for approximately 3 hours at 4° C. on a shaker platform. Reactions were aspirated onto GF/B glass filters pre-soaked in 0.3% polyethyleneimine (PEI) solution, on a vacuum cell harvester (Packard Instruments; Meriden, Conn.). Scintillation fluid (40 μl; Microscint 20, Packard Instruments) was added to each well, the plates were sealed and radioactivity measured in a Topcount scintillation counter (Packard Instruments). Control wells containing either diluent only (for total counts) or excess SDF1a (1 μg/mL, for non-specific binding) were used to calculate the percent of total inhibition for compound. The computer program Prism from Graph Pad, Inc. (San Diego, Calif.) was used to calculate IC50 values. IC50 values are those concentrations required to reduce the binding of radiolabeled SDF-1α to the receptor by 50%. (For further descriptions of ligand binding and other functional assays, see Dairaghi, et al., J. Biol. Chem. 274:21569-21574 (1999), Penfold, et al., Proc. Natl. Acad. Sci. USA. 96:9839-9844 (1999), and Dairaghi, et al,. J. Biol. Chem. 272:28206-28209 (1997)).
Chemotaxis assays were performed using 5 μm pore polycarbonate, polyvinylpyrrolidone-coated filters in 96-well chemotaxis chambers (Neuroprobe; Gaithersburg, Md.) using chemotaxis buffer (Hank's balanced salt solution (HBSS) and 1% FBS). CXCR4 ligand (i.e., SDF1a, R&D Systems; Minneapolis, Minn.) are use to evaluate compound mediated inhibition of CXCR4 mediated migration. Other chemokines (i.e., TECK; R&D Systems; Minneapolis, Minn.) are used as specificity controls. The lower chamber was loaded with 29 μl of chemokine (i.e., 0.1 nM SDF1a); the top chamber contained 50,000 Jurkat cells or IL-2 lymphocytes in 20 μl. […]

SMILES strings stand for the structures.

T1 sequence (P61073 whole entry): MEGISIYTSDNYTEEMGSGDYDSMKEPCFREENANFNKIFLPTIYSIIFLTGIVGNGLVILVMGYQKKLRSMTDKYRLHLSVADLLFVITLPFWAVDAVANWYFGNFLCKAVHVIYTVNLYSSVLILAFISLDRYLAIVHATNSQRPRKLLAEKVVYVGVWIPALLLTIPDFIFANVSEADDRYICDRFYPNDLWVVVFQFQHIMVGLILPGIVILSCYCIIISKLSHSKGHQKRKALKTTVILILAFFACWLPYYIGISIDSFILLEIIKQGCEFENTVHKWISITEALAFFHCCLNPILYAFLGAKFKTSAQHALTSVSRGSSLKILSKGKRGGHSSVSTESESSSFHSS

As to `COc1ccc2c(c1)c1c(cnn1CC(=O)NCCN(C)C1CCCCC1)c(=O)n2CC(=O)OC(C)(C)C` [Compound 12], the IC50 lay in the range of 1000 to 10000 nM.

`COc1ccc2c(c1)c1c(cnn1CC(=O)NCCN1CC[C@@H]3CCCC[C@H]3C1)c(=O)n2C` [Compound 34] displayed an IC50 of less than 1000 nM.

In the case of `CN(CCCNC(=O)Cn1ncc2cc3ccccc3nc21)C1CCCCC1` [Compound 14], the IC50 fell in the range of 1000 to 10000 nM.

`COc1ccc2c(c1)c1c(cnn1CC(=O)NCC1CCCN(C3CCCCC3)C1)c(=O)n2C` (stereo not drawn) [Compound 17] displayed an IC50 greater than 10000 nM.

`COc1ccc2c(c1)-c1c(cnn1CC(=O)NCCN(C)C1CCCC1)CO2` [Compound 20] had an IC50 of 1000 to 10000 nM.

Molecule `COc1ccc2nc(OC)c3cnn(CC(=O)NCCN(C)C4CCCCC4)c3c2c1` [Compound 9] returned an IC50 of less than 1000 nM.

Regarding `Cc1ccc2c(c1)-c1nn(CC(=O)NCCN(C)C3CCCCC3)cc1CO2` [Compound 3], the half-inhibitory concentration (IC50) was 1000 to 10000 nM.

Molecule `COc1ccc2c(c1)-c1c(cnn1CC(=O)NCCN(C1CCCCC1)C1CCCCC1)CO2` [Compound 7] gave an IC50 of 1000 to 10000 nM.

`CN(CCNC(=O)Cn1ncc2c(=O)oc3ccccc3c21)C1CCCCC1` [Compound 21] showed an IC50 greater than 10000 nM.

For the molecule `COc1ccc2c(c1)-c1c(cnn1CC(=O)NCCN(C)C1CCCCCC1)CO2` [Compound 26], the IC50 was greater than 10000 nM.

As for `COc1nc2ccc(C)cc2c2c1cnn2CC(=O)NCCN(C)C1CCCCC1` [Compound 36], the half-inhibitory concentration (IC50) fell in the range of 1000 to 10000 nM.

The molecule `COc1nc2cnn(CC(=O)NCCN(C)C3CCCCC3)c2c2ccccc12` [Compound 11] showed an IC50 of 1000 to 10000 nM.

As to `Cc1ccc2c(c1)c1c(cnn1CC(=O)NCCN(C)C1CCCCC1)c(=O)n2C` [Compound 8], the IC50 fell in the range of 1000 to 10000 nM.

The molecule `COc1ccc2c(c1)-c1c(cnn1CC(=O)NCCN(C)C1CCCCCCC1)CO2` [Compound 25] came in with an IC50 of 1000 to 10000 nM.

As to `COc1ccc2c(c1)c1c(cnn1CC(=O)NCCN1CCCC(C)C1)c(=O)n2C` (stereo not drawn) [Compound 40], the IC50 fell in the range of 1000 to 10000 nM.

Molecule `COc1ccc2c(c1)c1c(cnn1CC(=O)NCCCN(C)C1CCCCC1)c(=O)n2C` [Compound 35] registered an IC50 of less than 1000 nM.

Turning to `COc1ccc2c(c1)c1c(cnn1C(=O)NCCN1CCC[C@@H]3CCCC[C@H]31)c(=O)n2C` [Compound 28], the IC50 is less than 1000 nM.

`CCN(CCNC(=O)Cn1ncc2c(=O)n(C)c3ccc(OC)cc3c21)C1CCCCC1` [Compound 29]: the IC50 was 1000 to 10000 nM.

Regarding `Cc1cc2c(cc1Cl)-c1c(cnn1CC(=O)NCCN(C)C1CCCCC1)CO2` [Compound 23], the IC50 is greater than 10000 nM.

On to `COc1ccc2c(c1)c1c(cnn1CC(=O)NCCN1CCC3CCCCC3C1)c(=O)n2C` (stereo not drawn) [Compound 16], for which the IC50 is less than 1000 nM.

`CN(CCNC(=O)Cn1ncc2[nH]c(=O)c3ccccc3c21)C1CCCCC1` [Compound 10] returned an IC50 greater than 10000 nM.

With `CN(CCNC(=O)Cn1ncc2c1-c1ccc(C#N)cc1OC2)C1CCCCC1` [Compound 19], the IC50 is less than 1000 nM.

For the molecule `CCn1c(=O)c2cnn(CC(=O)NCCN(C)C3CCCCC3)c2c2cc(OC)ccc21` [Compound 33], the IC50 is less than 1000 nM.

Consider `COc1ccc2c(c1)-c1c(cnn1CC(=O)NCCN(C)C1CCCCC1)C(OCC(=O)OC(C)(C)C)N2` (stereo not drawn) [Compound 39], for which the IC50 lay within 1000 to 10000 nM.

`Cc1ccc2c(c1)-c1c(cnn1CC(=O)N1CCN(C3CCCCCC3)CC1)CO2` [Compound 5] came in with an IC50 of 1000 to 10000 nM.

As to `COc1ccc2c(c1)c1c(cnn1C(C)C(=O)NCCN(C)C1CCCCC1)c(=O)n2C` (stereo not drawn) [Compound 15], the IC50 lay within 1000 to 10000 nM.

As for `CN(CCNC(=O)Cn1ncc2c1-c1ccccc1CC2)C1CCCCC1` [Compound 6], the concentration for half-maximal inhibition (IC50) was in the range of 1000 to 10000 nM.

Regarding `COc1ccc2c(c1)c1c(cnn1CC(=O)NCCN(C)C1CCOCC1)c(=O)n2C` [Compound 18], the IC50 was greater than 10000 nM.

In turn, `COc1ccc2c(c1)-c1c(cnn1C(=O)NCCN1CCC[C@@H]3CCCC[C@@H]31)CO2` [Compound 27] came in with an IC50 of 1000 to 10000 nM.

Take `COc1ccc2c(c1)c1c(cnn1C(C)C(=O)NCCCN(C)C1CCCCC1)c(=O)n2C` (stereo not drawn) [Compound 38]: the IC50 lay in the range of 1000 to 10000 nM.

`CCN(CCCNC(=O)Cn1ncc2c(=O)n(C)c3ccc(OC)cc3c21)C1CCCCC1` [Compound 37] registered an IC50 of less than 1000 nM.

`CN(CCNC(=O)Cn1ncc2c1-c1cc(Cl)ccc1OC2)C1CCCCC1` [Compound 4] came in with an IC50 greater than 10000 nM.

`CN(CCNC(=O)Cn1ncc2c(=O)oc3ccc(Cl)cc3c21)C1CCCCC1` [Compound 22] registered an IC50 of 1000 to 10000 nM.

In general, IC50 refers to the concentration needed to halve the response being measured.

The values are drawn from patent US7671069B2, “Tricyclic, heteroaromatic compounds modulating CXCR4 and/ or CXCR7” (ChemoCentryx, Inc., priority 2006, dated 2010).
